{
  "source": "patent US7803377B2",
  "about": "“Anti-DLL4 antibodies and methods using same” (Genentech, Inc., priority 2006, dated 2010)",
  "key": {"[1]": {"system": "mouse leukemia WEHI-3 cells", "assay": "Tumor model WEHI3", "assay_type": "in vivo", "conditions": "treatment initiated at ≧250 mm^3", "protocol": "(§1) Tumor models. Beige nude female mice of 8- to 10-week-old were used. To obtain subcutaneous tumors, mice were injected with 0.1 ml cell suspension containing 50% matrigel (BD Bioscience) into the right posterior flank. 5×10^6 human colon cancer HM7 cells, 10×10^6 human colon carcinoma Colo205 cells, 10×10^6 human lung carcinoma Calu6 cells, 10×10^6 human lung carcinoma MV-522 cells, 10×10^6 mouse leukemia WEHI-3 cells, 10×10^6 mouse lymphoma EL4 cells, 10×10^6 human ovarian cancer SK-OV-3 X1 cells, 10×06 mouse lung cancer LL2 cells, 10×10^6 leukemia/lymphoma EL4 cells, or 10×10^6 non-small lung cancer H1299 cells were injected into each mouse. For human melanoma MDA-MB-435 model, mice were injected into the mammary fat pad with 0.1 ml cell (5×10^6) suspension containing 50% matrigel. […] For the following tumor models, each test mouse received a subcutaneous tumor fragment (1 mm^3) implanted in the right flank: non-small lung cancer SKMES-1, human breast cancer MX-1, human colorectal cancer SW620 and human adenocarcinoma LS174T. The tumor growth was quantitated by caliper measurements. Tumor volume (mm^3) was determined by measuring the length (l) and width (w) and calculating the volume (V=lw2/2). 10 to 15 animals were included in each group. Statistical comparison of treatment groups was performed using two-tailed Student's t-test. […]"}, "HUVECs": {"system": "HUVECs", "assay": "HUVEC fibrin gel bead assay", "assay_type": "cell-based, human", "conditions": "anti-DLL4 antibody 5 μg/ml, DBZ 0.08 μM", "protocol": "HUVEC fibrin gel bead assay. Details of the HUVEC fibrin gel bead assay have been described (Nakatsu, M. N. et al. Microvasc Res 66, 102-12 (2003)). Briefly, Cytodex™ 3 beads (Amersham Pharmacia Biotech) were coated with 350-400 HUVECs per bead. About 200 HUVEC-coated beads were imbedded in fibrin clot in one well of 12-well tissue culture plate. 8×10^4 SF cells were plated on top of the clot. Assays were terminated between day 7 and day 9 for immunostaining and imaging. In some experiments, HUVEC sprouts were visualized by staining with Biotin-anti-CD31 (clone WM59, eBioscience) and strepavidin-Cy3. For HUVEC nuclei staining, fibrin gels were fixed overnight in 2% paraformaldehyde (PFA), and stained with 4′,6-diamidino-2-phenylindole (DAPI, Sigma). For Ki67 staining, fibrin gels were treated with 10× trypsin-EDTA for 5 min to remove the top layer SF, neutralized with 10% FBS in PBS, and fixed overnight in 4% PFA. Fibrin gels were then blocked with 10% goat serum in PBST for 4 hr, incubated overnight with rabbit anti-mouse Ki67 (Ready-To-Use, clone Sp6, LabVision), followed by secondary detection with anti-rabbit IgG-Cy3 (Jackson ImmunoResearch). All overnight incubations were done at 4° C. […]"}, "[2]": {"system": "human colorectal cancer SW620", "assay": "Tumor model SW620", "assay_type": "in vivo, mouse", "conditions": "5 mg/kg, IP, twice weekly after establishment of the tumors", "protocol": "as §1"}, "[3]": {"system": "SK-OV-3X1, LL2, EL4, H11299, SKMES-1, MX-1, SW620 and LS174T models", "assay": "Tumor models, combination of YW26.82 with anti-VEGF where tested", "assay_type": "in vivo, mouse", "conditions": "YW26.82 5 mg/kg and anti-VEGF 5 mg/kg, IP, twice weekly; models where the combination was tested", "protocol": "as §1"}, "[4]": {"system": "mouse lung cancer LL2 cells", "assay": "Tumor model LL2", "assay_type": "in vivo", "conditions": "5 mg/kg, IP, twice weekly after establishment of the tumors", "protocol": "as §1"}, "retinal vasculature": {"system": "retinal vasculature", "assay": "Mouse neonatal retina study", "assay_type": "in vivo", "protocol": "Mouse neonatal retina study. […] Eyes were collected on P5, and fixed with 4% PFA in PBS overnight. The dissected retinas were blocked with 10% goat serum in PBST for 3 hrs, then incubated overnight with primary antibodies. The primary cocktail included biotinylated isolectin B4 (25 μg/ml, Bandeiraea simplicifolia; Sigma), and one of the following: rabbit anti-mouse Ki67 (1:1, ready-to-use, clone Sp6, Lab Vision), or mouse Cy3-conjugated anti-alpha SMA (1:2000, Sigma-Aldrich), with 10% serum in PBLEC (1% Triton X-100, 0.1 mM CaCl2, 0.1 mM MgCl2, 0.1 mM MnCl2, in PBS pH6.8). Retinas were then washed in PBST, and incubated overnight with secondary antibody combination of Alexa Fluor® 488 streptavidin (1:200; Molecular Probes) and Cy3-anti-rabbit IgG (1:200; Jackson ImmunoResearch). After staining was completed, retinas were post fixed with 4% PFA in PBS. All overnight incubations were done at 4° C. Images of flat mounted retinas were captured by confocal fluorescence microscopy.\nEarly postnatal mouse retina develops a stereotypic vascular pattern in a well-defined sequence of events (Stone, J. & Dreher, Z. J Comp Neurol 255, 35-49 (1987); Gerhardt, H. et al. J Cell Biol 161, 1163-77 (2003); Fruttiger, M. Invest Opthalmol Vis Sci 43, 522-7 (2002)). […] Therefore, this hyperproliferative phenotype of retinal ECs upon DLL4 blockade in neonatal mice corroborated the in vitro findings."}, "full length DLL4": {"target": "T1, full length DLL4 (Homo sapiens, UniProt Q9NR61)", "T1 construct": "transiently transfected with vector, full length DLL4, Jag1 or DLL1; expressed in transfected cells; host or cells: 293 cells, transient", "assay": "FACS analysis of transiently transfected 293 cells", "assay_type": "binding", "conditions": "DLL4 transfected 293 cells; antibody 2 μg/ml"}, "[5]": {"system": "human adenocarcinoma LS174T", "assay": "Tumor model LS174T", "assay_type": "in vivo, mouse", "conditions": "5 mg/kg, IP, twice weekly after establishment of the tumors", "protocol": "as §1"}, "[6]": {"conditions": "neonatal CD1 mice, 10 mg/kg i.p. on P1 and P3, eyes collected P5"}, "[7]": {"conditions": "neonatal mice, 10 mg/kg i.p. on P1 and P3"}},
  "data": [
    {"substance": "YW26.82: affinity matured anti-DLL4 monoclonal antibody; HVR-H1/H2/H3 SEQ ID NO:1, 8, 9; HVR-L1/L2/L3 SEQ ID NO:10, 11, 18", "values": [
      {"measurement": "tumor growth, single agent", "setting": "[1]", "result": "significant inhibition of tumor growth"},
      {"measurement": "HUVEC sprouting (length and number of sprouts)", "setting": "HUVECs; fibrin gel with co-cultured SF cells", "result": "markedly increased the length and number of sprouts"},
      {"measurement": "Ki67 staining, HUVEC proliferation", "setting": "HUVECs; fibrin gel", "result": "caused hyperproliferation of HUVECs"},
      {"measurement": "tumor growth, single agent", "setting": "[2]", "result": "inhibited tumor growth alone"},
      {"measurement": "efficacy in combination with anti-VEGF", "setting": "[3]", "result": "enhanced efficacy"},
      {"measurement": "tumor growth, single agent", "setting": "[4]", "result": "inhibited tumor growth alone"},
      {"measurement": "Ki67 labeling in retinal ECs", "setting": "retinal vasculature; [6]", "result": "significant increase of Ki67 labeling in ECs"},
      {"measurement": "accumulation of ECs in neonatal retina", "setting": "retinal vasculature; [6]", "result": "massive accumulation of ECs"},
      {"measurement": "anti-α smooth muscle actin (ASMA) staining of retinal arteries", "setting": "retinal vasculature; [7]", "result": "completely absent"},
      {"measurement": "pattern of radially alternating arteries and veins in retina", "setting": "retinal vasculature; [7]", "result": "severely disrupted"},
      {"measurement": "binding by FACS", "setting": "full length DLL4", "result": "significant binding"},
      {"measurement": "tumor growth, single agent", "setting": "[5]", "result": "inhibited tumor growth alone"}
    ]}
  ]
}
